Patent publication US5102891A, “1-(substituted pyridinylamino)-1H-indol-5-yl substituted carbamates” (priority 1990, dated 1992)
pIC50: −log10 of the molar value. Where two headings read alike, the source gives them in different places.

Tests used:
[1] = target: T1, Acetylcholinesterase (AChE) (Rattus norvegicus, UniProt P37136); assay: biochemical; details: rat striatum homogenate, 10 min preincubation at 37° C., pH 7.2, acetylthiocholine 5 mM final; read-out: Inhibitory Concentration Brain AChE
T1 construct: corpora striata dissected free, weighed and homogenized in 19 volumes; from tissue; host or cells: corpora striata of male Wistar rats, whole homogenate
Procedure: Cholinesterases are found throughout the body, both in the brain and in serum. However, only brain acetylcholinesterase (AChE) distribution is correlated with central cholinergic innervation.
The method described below was used in this invention for assaying cholinesterase activity.
1. 0.05M Phosphate buffer, pH 7.2
(c) add (a) to (b) until pH reaches 7.2
4. A 2 mM stock solution of the test drug is made up in a suitable solvent and q.s. to volume with 0.5 mM DTNB (reagent 3). Drugs are serially diluted (1:10) such that the final concentration (in cuvette) is 10^-4 M and screened for activity. If active, IC50 values are determined from the inhibitory activity of subsequent concentrations.
Male Wistar rats are decapitated, brains rapidly removed, corpora striata dissected free, weighed and homogenized in 19 volumes (approximately 7 mg protein/ml) of 0.05M phosphate buffer, pH 7.2 using a Potter-Elvehjem homogenizer. […]
Enzyme activity is measured with the Beckman DU-50 spectrophotometer. […]
Blank values are determined for each run to control for non-enzymatic hydrolysis of substrate and these values are automatically subtracted by the kindata program available on kinetics soft-pac module. This program also calculates the rate of absorbance change for each cuvette. […]

[2] = system: Scopolamine Induced Memory Deficit; assay type: in vivo, mice
Procedure: In this assay mice are tested for their ability to remember an unpleasant stimulus for a period of 24 hours. A mouse is placed in a chamber that contains a dark compartment; a strong incandescent light drives it to the dark compartment, where an electric shock is administered through metal plates on the floor. The animal is removed from the testing apparatus and tested again, 24 hours later, for the ability to remember the electric shock.
If scopolamine, an anticholinergic that is known to cause memory impairment, is administered before an animal's initial exposure to the test chamber, the animal re-enters the dark compartment shortly after being placed in the test chamber 24 hours later. This effect of scopolamine is blocked by an active test compound, resulting in a greater interval before re-entry into the dark compartment.
The results for an active compound are expressed as the percent of a group of animals in which the effect of scopolamine is blocked, as manifested by an increased interval between being placed in the test chamber and re-entering the dark compartment.

T1 sequence (P37136 32-614): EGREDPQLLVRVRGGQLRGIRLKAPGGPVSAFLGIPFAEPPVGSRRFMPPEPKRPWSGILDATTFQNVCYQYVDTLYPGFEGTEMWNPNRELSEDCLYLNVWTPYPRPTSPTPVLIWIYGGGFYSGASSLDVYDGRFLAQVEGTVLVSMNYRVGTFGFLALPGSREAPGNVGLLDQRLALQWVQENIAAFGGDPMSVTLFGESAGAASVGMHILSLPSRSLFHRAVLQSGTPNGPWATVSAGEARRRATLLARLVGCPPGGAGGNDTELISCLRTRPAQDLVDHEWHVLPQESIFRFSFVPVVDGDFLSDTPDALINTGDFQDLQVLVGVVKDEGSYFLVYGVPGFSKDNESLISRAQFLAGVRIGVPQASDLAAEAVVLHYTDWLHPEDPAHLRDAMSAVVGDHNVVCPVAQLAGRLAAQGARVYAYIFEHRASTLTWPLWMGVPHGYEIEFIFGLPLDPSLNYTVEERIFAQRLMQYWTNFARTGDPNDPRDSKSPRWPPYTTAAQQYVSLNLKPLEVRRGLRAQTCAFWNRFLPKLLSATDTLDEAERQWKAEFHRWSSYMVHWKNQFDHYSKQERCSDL

With `CCCN(c1ccncc1)n1ccc2cc(OC(=O)N[C@@H](C)c3ccccc3)ccc21` [(S)-(-)-1-(Propyl-4-pyridinylamino)-1H-indol-5-yl 1-phenylethylcarbamate] the pIC50 [1] was 4.52.

With `CC[C@@H]1C(=O)OC[C@@H]1Cc1cncn1C` [Pilocarpine] the “% of Animals with Scopolamine Induced Memory Deficit Reversal” value (from here on “% of Animals”) ([2]; mice, 5.0 mg/kg of body weight, s.c., retest 24 hours) was 13%.

With `CCCN(c1ccncc1)n1ccc2cc(OC(=O)NC)ccc21` [1-(Propyl-4-pyridinylamino)-1H-indol-5-yl methylcarbamate] the “% of Animals” value ([2]; mice, 0.35 mg/kg of body weight, s.c., retest 24 hours) was 21% and the pIC50 [1] was 8.64.

`Nc1c2c(nc3ccccc13)CCCC2` [Tacrine] was tested, and the “% of Animals” value ([2]; mouse, in vivo, sc, 0.63 mg/kg) was 13%.
